Source: ChEMBL document CHEMBL1158658, “Pyrrolizidine Alkaloids From Middle Eastern Plants” (1979)

What was measured:
Type in all cases: functional
[1] = system: P388; test: Antitumor activity against mouse P388 cells xenografted in male organism at 800 mg/kg relative to control
[2] = system: P388; test: Antitumor activity against mouse P388 cells xenografted in male organism at 200 mg/kg relative to control
[3] = system: P388; test: Antitumor activity against mouse P388 cells xenografted in male organism at 400 mg/kg relative to control
[4] = system: P388; test: Antitumor activity against mouse P388 cells xenografted in male organism at 100 mg/kg relative to control
[5] = system: P388; test: Antitumor activity against mouse P388 cells xenografted in female organism at 200 mg/kg relative to control
[6] = system: P388; test: Antitumor activity against mouse P388 cells xenografted in female organism at 400 mg/kg relative to control
[7] = system: P388; test: Antitumor activity against mouse P388 cells xenografted in female organism at 800 mg/kg relative to control
[8] = system: P388; test: Antitumor activity against mouse P388 cells xenografted in female organism at 100 mg/kg relative to control
[9] = system: P388; test: Antitumor activity against mouse P388 cells xenografted in female organism at 50 mg/kg relative to control

Structure (SMILES) | T/C [1] | T/C [2] | T/C [3] | T/C [4] | T/C [5] | T/C [6] | T/C [7] | T/C [8] | T/C [9]
CO[C@@H](C)[C@](O)(C(=O)OCC1=CC[N+]2([O-])CC[C@H](O)[C@@H]12)C(C)(C)O (stereo not given in full) | 111 | 102 | 129 | 111 | – | – | – | – | –
CC(C)[C@](O)(C(=O)OCC1=CC[N+]2([O-])CC[C@@H](O)[C@@H]12)[C@H](C)O (stereo not given in full) [INDICINE N-OXIDE] | 187 | 147 | 165 | – | 130 | 136 | 109 | – | –
CC(C)[C@@](O)(C(=O)OCC1=CC[N+]2([O-])CC[C@H](O)[C@@H]12)[C@H](C)O (stereo not given in full) | – | – | – | – | 118 | 138 | 145 | 113 | 109
